Experimental data: publication PMC12051620, “Molecular basis underlying the specificity of an antagonist AA92593 for mammalian melanopsins” (The Journal of Biological Chemistry, 2025)

How the values were obtained:
[1] = tested on: Xenopus Opn4x L207^5.42F mutant; experiment: GsX GloSensor assay with Gsα/q11; assay type: cell-based; conditions: 16.7 μM AA92593, COS-1 cells
Text: (§1) Similar to human and mouse melanopsins (Fig. 5, F and H, I, M, and N), the introduction of a Phe residue at position 207^5.42 in Xenopus Opn4x and Chicken Opn4-1 increased their susceptibility of the melanopsins for AA92593 by ∼53% and ∼37%, respectively, although the substitutions reduced light-dependent cAMP responses by the melanopsins (Fig. 6, C and F, G and H). […]
(§2) For GloSensor assay, opsins, GloSensor assay sensor (coded by pGlo-22F), and NanoBiT-tagged G proteins were transiently expressed in COS-1 cells (kindly provided from Dr David Farrens, Oregon Health and Science University) using PEI as described previously ([24], [52]). […] For GFP-fluorescence microscopy, a 35-mm cell culture dish (IWAKI) was transfected with 2 μg melanopsin-GFP plasmid and 8 μg PEI in 400 μl Opti-mem and 1.2 ml D-MEM. […]
(§3) The transfected COS-1 cells were incubated at 37 °C, 5% CO2 for 2 days, and the medium was aspirated and exchanged with 50 μl of HBSS (145 mM NaCl, 10 mM D-glucose, 5 mM KCl, 1 mM MgCl2, 1.7 mM CaCl2, 1.5 mM NaHCO3, 10 mM Hepes, pH 7.4), containing 33.3, 20, 10, 2, 0.2, 0.02, 0.002, or 0 μM AA92593, 0.5% dimetyl sulfoxide (DMSO), and 4% (vol/vol) GloSensor cAMP reagent stock solution. […] Then, the cells were incubated at room temperature for 1 h, and luminescence changes were monitored. […] Luminescence was measured using GM-2000 or GM-3510 microplate reader (Promega). […]

[2] = tested on: chicken Opn4-1 L207^5.42F mutant; experiment: GsX GloSensor assay with Gsα/q11; assay type: cell-based; conditions: 16.7 μM AA92593, COS-1 cells
Text: as §1, §2, §3

COc1ccc(S(=O)(=O)N2CCCCC2)cc1C [AA92593]
increase in susceptibility for AA92593 vs WT [1]: ~53%
increase in susceptibility for AA92593 vs WT [2]: ~37%
